Experimental data from ChEMBL document CHEMBL4334436 (Medchemcomm, 2019).

What was measured:
D(3) dopamine receptor = D(3) dopamine receptor (Homo sapiens, UniProt P35462); assay: Displacement of [3H]spiperone from human dopamine D3 receptor expressed in dihydrofolate reductase deficient CHO-K1 cell membrane incubated for 2 hrs by MicroBeta Trilux scintillation counting method; type: cell membranes
D(2) dopamine receptor = D(2) dopamine receptor (Homo sapiens, UniProt P14416); assay: Displacement of [3H]spiperone from human dopamine D2S receptor expressed in CHO-K1 cell membrane incubated for 2 hrs by MicroBeta Trilux scintillation counting method; type: cell membranes
D(2) dopamine receptor, sequence (P14416 whole entry): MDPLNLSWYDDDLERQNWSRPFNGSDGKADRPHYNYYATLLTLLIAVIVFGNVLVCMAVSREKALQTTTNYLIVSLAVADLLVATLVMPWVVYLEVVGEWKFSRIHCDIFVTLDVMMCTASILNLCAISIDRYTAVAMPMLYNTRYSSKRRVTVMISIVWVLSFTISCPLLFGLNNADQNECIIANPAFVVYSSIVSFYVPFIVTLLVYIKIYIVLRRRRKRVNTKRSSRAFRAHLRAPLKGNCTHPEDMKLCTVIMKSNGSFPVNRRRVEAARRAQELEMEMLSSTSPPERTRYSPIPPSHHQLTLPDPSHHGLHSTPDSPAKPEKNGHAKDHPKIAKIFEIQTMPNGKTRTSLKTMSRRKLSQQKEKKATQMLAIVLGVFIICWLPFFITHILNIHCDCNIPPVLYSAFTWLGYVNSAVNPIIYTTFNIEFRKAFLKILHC

D(3) dopamine receptor, sequence (P35462 whole entry): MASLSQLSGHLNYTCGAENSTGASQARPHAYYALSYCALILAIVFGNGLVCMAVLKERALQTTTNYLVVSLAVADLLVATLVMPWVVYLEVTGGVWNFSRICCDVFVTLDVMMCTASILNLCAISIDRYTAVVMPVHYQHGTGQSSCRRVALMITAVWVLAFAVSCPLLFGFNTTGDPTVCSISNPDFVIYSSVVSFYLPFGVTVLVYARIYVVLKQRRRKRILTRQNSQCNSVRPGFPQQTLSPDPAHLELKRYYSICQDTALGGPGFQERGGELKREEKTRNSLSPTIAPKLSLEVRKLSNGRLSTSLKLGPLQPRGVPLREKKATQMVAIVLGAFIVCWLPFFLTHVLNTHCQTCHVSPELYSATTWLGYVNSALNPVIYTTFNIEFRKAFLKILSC

Row | Compound | Ki (D(3) dopamine receptor) [nM] | Ki (D(2) dopamine receptor) [nM]
1 | Nc1nc2c(s1)CCN(CCCCN1CCN(c3ncccn3)CC1)CC2 | 3800 | 2750
2 | O=C(c1ccccc1)N1CCN(CCN2CCc3ncsc3CC2)CC1 | 12300 | 41700
3 | c1cnc(N2CCN(CCCCN3CCc4ncsc4CC3)CC2)nc1 | 3090 | 2510
4 | Clc1cccc(N2CCN(CCCCN3CCc4ncsc4CC3)CC2)c1Cl | 28.2 | 18.2
5 | COc1ccccc1N1CCN(CCCCOc2ccc3scnc3c2)CC1 | 8.51 | 3.24
6 | COc1ccccc1N1CCN(CCN2CCc3ncsc3CC2)CC1 | 240 | 151
7 | O=C(NCCCCN1CCc2ncsc2CC1)C12CC3CC(CC(C3)C1)C2 | 447 | 5500
8 | COc1ccccc1N1CCN(CCCCOc2ccc3sc(N)nc3c2)CC1 | 3.02 | 2.82
9 | c1nc2c(s1)CCN(CCCCN1CCc3ncsc3CC1)CC2 | 3800 | 6310
10 | COc1ccccc1N1CCN(CCCN2CCCc3ncsc3C2)CC1 | 257 | 178
11 | COc1ccccc1N1CCN(CCCN2CCc3ncsc3CC2)CC1 | 166 | 64.6
12 | Nc1nc2c(s1)CCN(CCCCN1CCN(c3cccc(Cl)c3Cl)CC1)CC2 | 25.7 | 22.4
13 | COc1ccccc1N1CCN(CCCCN2CCc3ncsc3CC2)CC1 | 309 | 85.1
